Test results published in patent US9120775B2, “Viral polymerase inhibitors” (Biota Scientific Management Pty Ltd, priority 2012, dated 2015).
Values after ≈ are worked out from the molar mass of the structure shown. Read-outs that look alike come from different tables or passages of the source.

What was measured:
[1] = tested on: genotype 1b (Con 1) subgenomic replicon cell line; experiment: HCV replicon assay, genotype 1b, Renilla luciferase reporter; format: cell-based; conditions: Hepatitis C virus; 72 hours incubation, Renilla luciferase activity
Experimental: A genotype 1b (Con 1) subgenomic replicon cell line based on Blight et al., Science 2000 290: 1972-1974, modified to express a Renilla luciferase reporter gene was used to assess antiviral activity of test compounds. Cell cultures were maintained in a sub-confluent state in DMEM with glutamine, 10% heat-inactivated foetal bovine serum (FBS) and G418 (Geneticin®).
For assay, cells were seeded at a density of 7000 cells/well into 96 well tissue culture trays in culture media lacking G418. Compounds were tested in a three fold dilution series, for example starting from 50 uM. After 72 hours incubation at 37° C. and 5% CO2, Renilla luciferase activity was quantified via the Promega Renilla Luciferase or Renilla-Glo™ Luciferase Assay Systems (Promega corporation. The same method was employed for replicon assays using subgenomic genotype 1a (H77) and 2a (JFH-1) replicon cell lines with a seeding cell density of 5000 cells/well for the 2a cell lines.
The compound concentration that reduced luciferase activity by 50% (EC50) was calculated using non-linear regression.

[2] = Aqueous solubility (laser nephelometry); format: physicochemical; conditions: for solubility at 30 min: aqueous assay buffer pH 6.5 with 1% DMSO, aqueous buffer, kinetic from dmso stock, pH 6.5, 1% DMSO, 30 minute incubation at 25° C.
Experimental: Test compounds prepared in DMSO were screened in duplicate over a range of concentrations (1.6-100 ug/mL) in different aqueous media (for example a pH6.5 buffers which are relevant to the stomach and upper regions of the small intestine and therefore important when predicting the amount of drug likely to be in solution following oral administration). Test compounds were serially diluted in 100% DMSO ranging from 10-0.16 mg/mL. These titrated DMSO stocks were then further diluted 1:100 with assay buffer and added to test plates (UV Star Griener 384 well plates), maintaining the DMSO concentration at 1%.

1b (BK) NS5BΔ21 = molecular target: T1, 1b (BK) NS5BΔ21 (Hepatitis C virus genotype 1b, UniProt P26663); experiment: HCV polymerase inhibition assay; format: biochemical
T1 construct: 100 nM 1b (BK) NS5BΔ21
T1 sequence (P26663 2420-2989, stated change not applied): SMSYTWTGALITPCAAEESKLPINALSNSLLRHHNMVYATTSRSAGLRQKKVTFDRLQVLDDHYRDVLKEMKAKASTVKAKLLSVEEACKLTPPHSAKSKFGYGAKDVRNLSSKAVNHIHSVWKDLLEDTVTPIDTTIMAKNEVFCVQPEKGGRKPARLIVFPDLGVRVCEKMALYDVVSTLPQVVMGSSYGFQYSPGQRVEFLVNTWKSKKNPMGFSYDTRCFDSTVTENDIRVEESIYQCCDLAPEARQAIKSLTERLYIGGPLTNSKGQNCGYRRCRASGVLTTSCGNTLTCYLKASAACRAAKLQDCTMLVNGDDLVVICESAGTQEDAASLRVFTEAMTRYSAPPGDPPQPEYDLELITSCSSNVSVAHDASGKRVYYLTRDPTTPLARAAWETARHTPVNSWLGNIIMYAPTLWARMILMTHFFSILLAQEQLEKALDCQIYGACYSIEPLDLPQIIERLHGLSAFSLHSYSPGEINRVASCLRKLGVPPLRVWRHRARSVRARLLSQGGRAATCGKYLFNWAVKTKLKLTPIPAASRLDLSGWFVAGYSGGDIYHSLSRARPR
Experimental: HCV polymerase reactions were carried out using a modified method of Howe et al., Antimicrobial Agents and Chemotherapy 2004 48(12): 4813-4821. Reactions contained a final concentration of, 0.5% DMSO, 100 nM 1b (BK) NS5BΔ21, 20 mM Tris-HCl pH 7.5, 5 mM MgCl2, 5 mM MnCl2, 3 mM DTT, 0.05% BSA, 0.2 U/μL RNasin, 10 μg/mL Poly(rC) template, GTP (at Km) and 0.05 μCi/μL ^33P-GTP in a total reaction volume of 50 μL. Compounds were tested in a three fold dilution series, for example starting from 50 μM. Reactions were initiated with the addition of GTP and terminated after […] with 50 μL ice cold 0.2 M EDTA. Terminated reactions were transferred to DEAE 96-well filter plates, unincorporated nucleotides washed from the filters and 50 μL scintillation fluid added prior to reading on a scintillation counter. The compound concentration that reduced ^33P-GTP incorporation by 50% (IC50) was calculated using non-linear regression.

[3] = read-out: solubility ranges at pH 6.5

Structure (SMILES)	EC50 [1] [µM]	solubility at 30 min [2, 3] [µg/mL]	IC50 (1b (BK) NS5BΔ21) [µM]	solubility at 30 min ([2]; read-out: Solubility at pH 6.5) [µg/mL]	solubility at pH 6.5 (in words) ([2]; pH 6.5, good solubility when the value is >25 ug/mL)
CNC(=O)c1c2cc(C3CC3)c(N(CCC3(CNC(=O)OC(C)(C)C)COC3)S(C)(=O)=O)cc2nn1-c1ccc(C)cn1 [Compound 35, tert-butyl N-[[3-[2-[[5-cyclopropyl-3-(methylcarbamoyl)-2-(5-methyl-2-pyridyl)indazol-6-yl]-methylsulfonyl-amino]ethyl]oxetan-3-yl]methyl]carbamate]	1 to 10	12.5 to 25 (≈ 20.4 to 40.8 µM)			
CNC(=O)c1c2cc(C3CC3)c(N(CCC3CN(C(C)=O)C3)S(C)(=O)=O)cc2nn1-c1ccc(Cl)cc1 [Compound 8, 6-{[2-(1-acetylazetidin-3-yl)ethyl](methylsulfonyl)amino}-2-(4-chlorophenyl)-5-cyclopropyl-N-methyl-2H-indazole-3-carboxamide]	< 0.1	25 to 50 (≈ 45.9 to 91.9 µM)	0.1 to 0.49		
CNC(=O)c1c2cc(C3CC3)c(N(CCC3(OC)COC3)S(C)(=O)=O)cc2nn1-c1ccc(Cl)cc1 [Compound 36, 2-(4-chlorophenyl)-5-cyclopropyl-6-[2-(3-methoxyoxetan-3-yl)ethyl-methylsulfonyl-amino]-N-methyl-indazole-3-carboxamide]	0.1 to 0.49	50 to 100 (≈ 93.8 to 188 µM)			
CNC(=O)c1c2cc(C3CC3)c(N(CC[C@@H]3CO[C@H]3C)S(C)(=O)=O)cc2nn1-c1ccc(Cl)cc1 (single isomer, unassigned) [Compound 32]	< 0.1	25 to 50 (≈ 48.4 to 96.7 µM)	0.1 to 0.49		
CNC(=O)c1c2cc(C3CC3)c(N(CCC3(F)COC3)S(C)(=O)=O)cc2nn1-c1ccc(Cl)cc1 [Compound 26, 2-(4-chlorophenyl)-5-cyclopropyl-6-[2-(3-fluorooxetan-3-yl)ethyl-methylsulfonyl-amino]-N-methyl-indazole-3-carboxamide]	< 0.1	25 to 50 (≈ 48 to 96 µM)	< 0.1		
CNC(=O)c1c2cc(C3CC3)c(N(CC[C@H]3CO[C@@H]3C)S(C)(=O)=O)cc2nn1-c1ccc(Cl)cc1 (single isomer, unassigned) [Compound 33]	< 0.1	50 to 100 (≈ 96.7 to 193 µM)	0.1 to 0.49		
CNC(=O)c1c2cc(C3CC3)c(N(CCC3COC3)S(C)(=O)=O)cc2nn1-c1ccc(C)cc1 [Compound 3, 5-Cyclopropyl-N-methyl-2-(4-methylphenyl)-6-{(methylsulfonyl)[2-(oxetan-3-yl)ethyl]amino}-2H-indazole-3-carboxamide]	< 0.1	12.5 to 25 (≈ 25.9 to 51.8 µM)	< 0.1		
CNC(=O)c1c2cc(C3CC3)c(N(CCC3(OC)CNC3)S(C)(=O)=O)cc2nn1-c1ccc(Cl)cc1 [Compound 29, 2-(4-chlorophenyl)-5-cyclopropyl-6-[2-(3-methoxyazetidin-3-yl)ethyl-methylsulfonyl-amino]-N-methyl-indazole-3-carboxamide]	1 to 10	12.5 to 25 (≈ 23.5 to 47 µM)	1 to 10		
CNC(=O)c1c2cc(C3CC3)c(N(CCC3OCC3C)S(C)(=O)=O)cc2nn1-c1ccc(Cl)cc1 (centres unmarked) [Compound 17, 3,5-anhydro-1-{[2-(4-chlorophenyl)-5-cyclopropyl-3-(methylcarbamoyl)-2H-indazol-6-yl](methylsulfonyl)amino}-1,2,4-trideoxy-4-methylpentitol]	0.1 to 0.49	50 to 100 (≈ 96.7 to 193 µM)	0.1 to 0.49		
CNC(=O)c1c2cc(C3CC3)c(N(CC(F)C3COC3)S(C)(=O)=O)cc2nn1-c1ccc(Cl)cc1 (centres unmarked) [Compound 18, 2-(4-chlorophenyl)-5-cyclopropyl-6-{[2-fluoro-2-(oxetan-3-yl)ethyl](methylsulfonyl)amino}-N-methyl-2H-indazole-3-carboxamide]	0.1 to 0.49	50 to 100 (≈ 96 to 192 µM)	< 0.1		
CNC(=O)c1c2cc(C3CC3)c(N(CC3COC3)S(C)(=O)=O)cc2nn1-c1ccc(Cl)cc1 [Compound 14, 2-(4-chlorophenyl)-5-cyclopropyl-N-methyl-6-[(methylsulfonyl)(oxetan-3-ylmethyl)amino]-2H-indazole-3-carboxamide]	< 0.1		0.1 to 0.49	25 to 50 (≈ 51.1 to 102 µM)	good solubility
CNC(=O)c1c2cc(C3CC3)c(N(CCC3(OC)CN(C(C)=O)C3)S(C)(=O)=O)cc2nn1-c1ccc(Cl)cc1 [Compound 30, 6-[2-(1-acetyl-3-methoxy-azetidin-3-yl)ethyl-methylsulfonyl-amino]-2-(4-chlorophenyl)-5-cyclopropyl-N-methyl-indazole-3-carboxamide]	0.5 to 0.99	50 to 100 (≈ 87.1 to 174 µM)	0.5 to 0.99		
